Data taken from ChEMBL document CHEMBL3872220, “Amphiphilic xanthones as a potent chemical entity of anti-mycobacterial agents with membrane-targeting properties” (Eur J Med Chem, 2016).
In brackets after ≈: the same amount, converted by molar mass.

What was measured:
[1] = system: Mycolicibacterium smegmatis; test: Antimycobacterial activity against Mycobacterium smegmatis MC2 155 after 24 hrs by broth dilution assay; assay type: functional; conditions: str. MC2 155, 24 h
[2] = Cytotoxicity against human corneal fibroblasts assessed as reduction in ATP level measured after 4 hrs by Celltiter-Glo luminescent assay; assay type: toxicity, Corneal fibroblast
[3] = Drug metabolism in rat liver microsomes at 1 uM preincubated for 5 mins followed by NADPH addition measured up to 30 mins by LC-MS/MS method; assay type: ADME; conditions: read-out: Drug metabolism
[4] = target: CYP2C19 (Homo sapiens, UniProt P33261); test: Inhibition of CYP2C19 in human liver microsomes at 10 uM using omeprazole as substrate preincubated for 5 min followed by NADPH addition measured after 10 mins by LC-MS/MS method relative to control; assay type: ADME; conditions: probe omeprazole
[5] = system: Mycolicibacterium smegmatis; test: Antimycobacterial activity against Mycobacterium smegmatis MC2 155 assessed as ATP leakage by measuring extracellular ATP at 2 times MIC measured immediatey after addition of compounds by luciferase reporter gene assay; assay type: functional, str. MC2 155
[6] = system: Mycolicibacterium smegmatis; test: Antimycobacterial activity against Mycobacterium smegmatis MC2 155 assessed as ATP leakage by measuring extracellular ATP at 4 times MIC measured immediatey after addition of compounds by luciferase reporter gene assay; assay type: functional, str. MC2 155
[7] = system: Mycolicibacterium smegmatis; test: Antimycobacterial activity against Mycobacterium smegmatis MC2 155 assessed as ATP leakage by measuring intracellular ATP at 0.5 times MIC measured immediatey after addition of compounds by luciferase reporter gene assay; assay type: functional, str. MC2 155
[8] = system: Mycolicibacterium smegmatis; test: Antimycobacterial activity against Mycobacterium smegmatis MC2 155 assessed as ATP leakage by measuring extracellular ATP at 0.5 times MIC measured at 1 hr of post dose by luciferase reporter gene assay; assay type: functional, str. MC2 155
[9] = system: Mycolicibacterium smegmatis; test: Antimycobacterial activity against Mycobacterium smegmatis MC2 155 assessed as ATP leakage by measuring extracellular ATP at 2 times MIC measured at 1 hr of post dose by luciferase reporter gene assay; assay type: functional, str. MC2 155
[10] = system: Mycolicibacterium smegmatis; test: Antimycobacterial activity against Mycobacterium smegmatis MC2 155 assessed as ATP leakage by measuring extracellular ATP at 4 times MIC measured at 1 hr of post dose by luciferase reporter gene assay; assay type: functional, str. MC2 155
[11] = system: Mycolicibacterium smegmatis; test: Antimycobacterial activity against Mycobacterium smegmatis MC2 155 assessed as ATP leakage by measuring intracellular ATP at 0.5 times MIC measured at 1 hr of post dose by luciferase reporter gene assay; assay type: functional, str. MC2 155
[12] = system: Mycolicibacterium smegmatis; test: Antimycobacterial activity against Mycobacterium smegmatis MC2 155 assessed as ATP leakage by measuring intracellular ATP at MIC measured at 1 hr of post dose by luciferase reporter gene assay; assay type: functional, str. MC2 155
[13] = system: Mycolicibacterium smegmatis; test: Antimycobacterial activity against Mycobacterium smegmatis MC2 155 assessed as ATP leakage by measuring intracellular ATP at 2 times MIC measured at 1 hr of post dose by luciferase reporter gene assay; assay type: functional, str. MC2 155
[14] = system: Mycolicibacterium smegmatis; test: Antimycobacterial activity against Mycobacterium smegmatis MC2 155 assessed as ATP leakage by measuring extracellular ATP at 0.5 times MIC measured at 3 hrs post dose by luciferase reporter gene assay; assay type: functional, str. MC2 155
[15] = system: Mycolicibacterium smegmatis; test: Antimycobacterial activity against Mycobacterium smegmatis MC2 155 assessed as ATP leakage by measuring intracellular ATP at 0.5 times MIC measured at 3 hrs post dose by luciferase reporter gene assay; assay type: functional, str. MC2 155
[16] = system: Mycolicibacterium smegmatis; test: Antimycobacterial activity against Mycobacterium smegmatis MC2 155 assessed as ATP leakage by measuring intracellular ATP at 2 times MIC measured at 3 hrs post dose by luciferase reporter gene assay; assay type: functional, str. MC2 155
[17] = system: Mycolicibacterium smegmatis; test: Antimycobacterial activity against Mycobacterium smegmatis MC2 155 assessed as ATP leakage by measuring extracellular ATP at 0.5 times MIC measured at 6 hrs post dose by luciferase reporter gene assay; assay type: functional, str. MC2 155
[18] = system: Mycolicibacterium smegmatis; test: Antimycobacterial activity against Mycobacterium smegmatis MC2 155 assessed as ATP leakage by measuring extracellular ATP at 2 times MIC measured at 6 hrs post dose by luciferase reporter gene assay; assay type: functional, str. MC2 155
[19] = system: Mycolicibacterium smegmatis; test: Antimycobacterial activity against Mycobacterium smegmatis MC2 155 assessed as ATP leakage by measuring extracellular ATP at 4 times MIC measured at 6 hrs post dose by luciferase reporter gene assay; assay type: functional, str. MC2 155
[20] = system: Mycolicibacterium smegmatis; test: Antimycobacterial activity against Mycobacterium smegmatis MC2 155 assessed as ATP leakage by measuring intracellular ATP at 4 times MIC measured at 6 hrs post dose by luciferase reporter gene assay; assay type: functional, str. MC2 155
[21] = system: Mycolicibacterium smegmatis; test: Antimycobacterial activity against Mycobacterium smegmatis MC2 155 assessed as ATP leakage by measuring extracellular ATP at 0.5 times MIC measured at 9 hrs post dose by luciferase reporter gene assay; assay type: functional, str. MC2 155
[22] = system: Mycolicibacterium smegmatis; test: Antimycobacterial activity against Mycobacterium smegmatis MC2 155 assessed as ATP leakage by measuring extracellular ATP at MIC measured at 9 hrs post dose by luciferase reporter gene assay; assay type: functional, str. MC2 155
[23] = system: Mycolicibacterium smegmatis; test: Antimycobacterial activity against Mycobacterium smegmatis MC2 155 assessed as ATP leakage by measuring extracellular ATP at 2 times MIC measured at 9 hrs post dose by luciferase reporter gene assay; assay type: functional, str. MC2 155
[24] = system: Mycolicibacterium smegmatis; test: Antimycobacterial activity against Mycobacterium smegmatis MC2 155 assessed as ATP leakage by measuring extracellular ATP at 4 times MIC measured at 9 hrs post dose by luciferase reporter gene assay; assay type: functional, str. MC2 155
[25] = system: Mycolicibacterium smegmatis; test: Antimycobacterial activity against Mycobacterium smegmatis MC2 155 assessed as ATP leakage by measuring intracellular ATP at 0.5 times MIC measured at 9 hrs post dose by luciferase reporter gene assay; assay type: functional, str. MC2 155
[26] = system: Mycolicibacterium smegmatis; test: Antimycobacterial activity against Mycobacterium smegmatis MC2 155 assessed as ATP leakage by measuring intracellular ATP at MIC measured at 9 hrs post dose by luciferase reporter gene assay; assay type: functional, str. MC2 155
[27] = system: Mycolicibacterium smegmatis; test: Antimycobacterial activity against Mycobacterium smegmatis MC2 155 assessed as ATP leakage by measuring intracellular ATP at 4 times MIC measured at 9 hrs post dose by luciferase reporter gene assay; assay type: functional, str. MC2 155
[28] = system: Mycolicibacterium smegmatis; test: Antimycobacterial activity against Mycobacterium smegmatis MC2 155 assessed as ATP leakage by measuring extracellular ATP at 0.5 times MIC measured at 24 hrs post dose by luciferase reporter gene assay; assay type: functional, str. MC2 155
[29] = system: Mycolicibacterium smegmatis; test: Antimycobacterial activity against Mycobacterium smegmatis MC2 155 assessed as ATP leakage by measuring extracellular ATP at MIC measured at 24 hrs post dose by luciferase reporter gene assay; assay type: functional, str. MC2 155
[30] = system: Mycolicibacterium smegmatis; test: Antimycobacterial activity against Mycobacterium smegmatis MC2 155 assessed as ATP leakage by measuring intracellular ATP at 2 times MIC measured at 24 hrs post dose by luciferase reporter gene assay; assay type: functional, str. MC2 155
[31] = system: Mycolicibacterium smegmatis; test: Antimycobacterial activity against Mycobacterium smegmatis MC2 155 assessed as ATP leakage by measuring intracellular ATP at 4 times MIC measured at 24 hrs post dose by luciferase reporter gene assay; assay type: functional, str. MC2 155
[32] = system: Mycolicibacterium smegmatis; test: Antimycobacterial activity against Mycobacterium smegmatis MC2 155 assessed as inhibition of respiratory ATP synthesis by measuring ATP level at 4 times MIC measured after 3 hrs by luciferase reporter gene assay (reference value: 158.3%); assay type: functional, str. MC2 155; set-up: scale not given: the % may be the effect or the level left
[33] = system: Mycolicibacterium smegmatis; test: Antimycobacterial activity against Mycobacterium smegmatis MC2 155 assessed as inhibition of respiratory ATP synthesis by measuring ATP level at 2 times MIC measured after 6 hrs by luciferase reporter gene assay (reference value: 152%); assay type: functional, str. MC2 155; set-up: scale not given: the % may be the effect or the level left
[34] = system: Mycolicibacterium smegmatis; test: Antimycobacterial activity against Mycobacterium smegmatis MC2 155 assessed as inhibition of respiratory ATP synthesis by measuring ATP level at 2 times MIC measured after 6 hrs by luciferase reporter gene assay (reference value: 212.7%); assay type: functional, str. MC2 155; set-up: scale not given: the % may be the effect or the level left

CYP2C19, sequence (P33261 whole entry): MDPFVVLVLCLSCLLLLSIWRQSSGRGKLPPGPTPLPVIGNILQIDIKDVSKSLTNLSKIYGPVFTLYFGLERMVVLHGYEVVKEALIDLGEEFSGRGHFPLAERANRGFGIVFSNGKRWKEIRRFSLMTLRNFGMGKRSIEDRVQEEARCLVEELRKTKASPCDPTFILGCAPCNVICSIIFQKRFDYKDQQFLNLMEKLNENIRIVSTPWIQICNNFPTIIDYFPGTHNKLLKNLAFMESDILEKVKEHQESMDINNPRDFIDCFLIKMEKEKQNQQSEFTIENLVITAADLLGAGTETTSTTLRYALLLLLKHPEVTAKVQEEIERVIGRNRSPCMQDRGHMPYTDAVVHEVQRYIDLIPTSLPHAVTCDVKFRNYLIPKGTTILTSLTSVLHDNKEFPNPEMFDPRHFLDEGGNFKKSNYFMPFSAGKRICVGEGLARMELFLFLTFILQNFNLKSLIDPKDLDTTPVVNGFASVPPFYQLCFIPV

SMILES | MIC90 [1] [µM] | CC50 at 4 h [2] [µM] | metabolised at 0.5 h, 1 µM [3] [%] | inhibition at 10 min, 10 µM [4] [%] | Activity [5] [%] | Activity [6] [%] | Activity [7] [%] | Activity [8] [%] | Activity [9] [%] | Activity [10] [%] | Activity [11] [%] | Activity [12] [%] | Activity [13] [%] | Activity [14] [%] | Activity [15] [%] | Activity [16] [%] | Activity [17] [%] | Activity [18] [%] | Activity [19] [%] | Activity [20] [%] | also measured
COc1c(OCCCCN2CCOCC2)cc2oc3cc(OCCCCN4CCOCC4)c(CC=C(C)C)c(O)c3c(=O)c2c1CC=C(C)C | 35 (≈ 24.3 µg/mL) | > 150 | 0 | 17 | 3 | 3.8 | 100 | 2.2 | 30.4 | 42.7 | 97.8 | 93.5 | 69.6 | 5.9 | 94.1 | 36.6 | 13.2 | 76.7 | 91.3 | 6.7 | Activity [21]: 26.5%; Activity [22]: 58.6%; Activity [23]: 84.4%; Activity [24]: 92.1%; Activity [25]: 73.5%; Activity [26]: 41.4%; Activity [27]: 7.9%; Activity [28]: 47.5%; Activity [29]: 88.7%; Activity [30]: 5.3%; Activity [31]: 4.5%; Activity [32]: 26.8%; Activity [33]: 18.9%; Activity [34]: 11%
CCCN(CCC)CCCCOc1cc2oc3cc(OCCCCN(CCC)CCC)c(OC)c(CC=C(C)C)c3c(=O)c2c(O)c1CC=C(C)C | 3.2 (≈ 2.31 µg/mL) | 108 | 10 | 19.2 | 4 | 4.3 | 100 | 24.7 | 97.2 | 94.3 | 75.3 | 11.5 | 2.8 | 39 | 61 | 2.6 | 30.6 | 96.1 | 83.5 | 16.5 | Activity [21]: 33.5%; Activity [22]: 89.4%; Activity [23]: 96.1%; Activity [24]: 84.3%; Activity [25]: 66.5%; Activity [26]: 10.6%; Activity [27]: 15.7%; Activity [28]: 53.6%; Activity [29]: 88.1%; Activity [30]: 4.7%; Activity [31]: 12%; Activity [32]: 4.6%; Activity [33]: 3.9%; Activity [34]: 3.9%
CCN(CC)CCCCOc1cc2oc3cc(OCCCCN(CC)CC)c(OC)c(CC=C(C)C)c3c(=O)c2c(O)c1CC=C(C)C | 3.2 (≈ 2.13 µg/mL) | 19.7 | 12.1 | 3 | 1.3 | 1.3 | 100 | 6.8 | 95.6 | 97.4 | 93.2 | 57.9 | 4.4 | 16.4 | 83.6 | 2.7 | 12.2 | 96.8 | 96.7 | 3.3 | Activity [21]: 23.2%; Activity [22]: 82.4%; Activity [23]: 96.6%; Activity [24]: 97.3%; Activity [25]: 76.8%; Activity [26]: 17.6%; Activity [27]: 2.7%; Activity [28]: 66.7%; Activity [29]: 44.4%; Activity [30]: 13.3%; Activity [31]: 2.7%; Activity [32]: 2.6%; Activity [33]: 26.8%; Activity [34]: 2.3%
